Source: publication PMC6645336 (ACS Omega, 2018)
Several values for one entry are separate records, joined by “and”; a condition that tells them apart may be missing. Equal entries are not always repeated. Where two headings read alike, the source gives them in different places.

What was measured:
[1] = cited from earlier work
[2] = Phase 1: chemical distribution from whole milk into milk fat and skim milk; format: physicochemical, cow; conditions: for distribution into milk fat, percent of total amount added: mean of all doses; for ratio of concentration in milk fat to initial concentration in whole milk / ratio of concentration in skim milk to initial concentration in whole milk: mean of dose means
[3] = Phase 2: chemical distribution from skim milk into curd and whey; format: physicochemical, cow; conditions: for concentration ratio of 0% moisture curd to whey: dry matter basis; for Curd Fraction % Dose: phase 2, based on skim milk; for curd/whey concentration ratio: curd as obtained (70% moisture)
[4] = cited from earlier work; for log P / log D (pH 7.4): discussion compounds, Table S4
[5] = cited from earlier work; remark: listed apart in the source
[6] = Literature reports of residue distribution in milk products; design: species or system cow; conditions: 15% of whole milk in their study, 10% in ours; from ref 18 data
[7] = cited from earlier work; remark: listed apart in the source

Clc1cc2c(cc1Cl)Oc1cc(Cl)c(Cl)cc1O2 [2,3,7,8-TCDD]
residues in cream exceeding those in milk, factor ([1]; lactating dairy cows, medium heavy cream): about 10

Oc1c(Cl)cc2c(c1Cl)Oc1cc(Cl)c(Cl)cc1O2 [2-OH-1378-TCDD, 2-hydroxy-1,3,7,8-tetrachlorodibenzo-p-dioxin]
reduction in milk fat distribution by hydroxylation ([2]; 2-OH-1378-TCDD compared with 1278-TCDD): ~30%
distribution into milk fat, percent of total amount added [2]: 54%
ratio of concentration in milk fat to initial concentration in whole milk [2]: 11.2
greater distribution into whey compared to the unsubstituted analogue ([3]; 2-OH-1378-TCDD vs 1278-TCDD, 3′-MeSO2-PCB-101 vs PCB-118): ~30%
percent of whole milk chemical distributed to whey ([3]; based on whole milk): About 25%
concentration ratio of 0% moisture curd to whey ([3]; mean of doses): 18
chemical distributed into whey, percent of chemical in skim milk ([3]; mean of doses): 35–60%
chemical retained in the curd fraction, percent of chemical in skim milk ([3]; mean of doses): 40–60%

Clc1cc2c(cc1Cl)Oc1c(ccc(Cl)c1Cl)O2 [1278-TCDD, 1,2,7,8-tetrachlorodibenzo-p-dioxin]
distribution into milk fat, percent of total amount added [2]: > 80%
ratio of concentration in milk fat to initial concentration in whole milk [2]: 18–20 and 18.7
concentration ratio of 0% moisture curd to whey ([3]; mean of doses): 115
chemical retained in the curd fraction, percent of chemical in skim milk ([3]; mean of doses): ~80%

Brc1ccc(Oc2cc(Br)c(Br)cc2Br)c(Br)c1 [BDE-99, 2,2′,4,4′,5-pentabromodiphenyl ether]
distribution into milk fat, percent of total amount added [2]: > 80%
ratio of concentration in milk fat to initial concentration in whole milk [2]: 18–20
concentration ratio of 0% moisture curd to whey ([3]; mean of doses): 327
chemical retained in the curd fraction, percent of chemical in skim milk ([3]; mean of doses): ~80%
Curd Fraction % Dose ([3]; nominal 20 nM in whole milk): 73%
Curd Fraction % Dose ([3]; nominal 200 nM in whole milk): 80%
Curd Fraction % Dose ([3]; nominal 2000 nM in whole milk): 92%

CC(C)(c1ccc(O)cc1)c1ccc(O)cc1 [BPA, bisphenol A]
distribution into milk fat, percent of total amount added [2]: 39%
curd/whey concentration ratio ([3]; mean of doses): 29
concentration ratio of 0% moisture curd to whey ([3]; mean of doses): 111

Clc1ccc(C(c2ccc(Cl)cc2)C(Cl)(Cl)Cl)cc1 [DDT, dichlorodiphenyltrichloroethane]
starting DDT degraded to DDE and DDD ([1]; during the manufacturing of cheese): 27–53%
concentration in Swiss-type cheese relative to original whole milk ([1]; milk of dairy cows fed DDT): ~8 times
cream/whole milk ratio ([1]; pasteurized milk): 12
cream/whole milk ratio ([1]; raw milk): 9.0
log P [4]: 5.92
log D (pH 7.4) [4]: 6.22

C[C@]12CC[C@@H]3c4ccc(O)cc4CC[C@H]3[C@@H]1CCC2=O [E1, estrone]
distribution into milk fat, percent of total amount added [2]: 74%
ratio of concentration in milk fat to initial concentration in whole milk [2]: 15.8 and ~16
curd/whey concentration ratio ([3]; mean of doses): 24
concentration ratio of 0% moisture curd to whey ([3]; mean of doses): 104

CC[C@H]1OC(=O)[C@H](C)[C@@H](O[C@H]2C[C@@](C)(OC)[C@@H](O)[C@H](C)O2)[C@H](C)[C@@H](O[C@@H]2O[C@H](C)C[C@H](N(C)C)[C@H]2O)[C@](C)(O)C[C@@H](C)C(=O)[C@H](C)[C@@H](O)[C@]1(C)O [ERY, erythromycin]
curd/whey concentration ratio [5]: 2.4

O=C(O)CNCP(=O)(O)O [GLY, glyphosate]
distribution into milk fat, percent of total amount added [2]: 0.95%
ratio of concentration in milk fat to initial concentration in whole milk [2]: 0.2
ratio of concentration in skim milk to initial concentration in whole milk [2]: ~1
curd/whey concentration ratio ([3]; mean of doses): 1.4
concentration ratio of 0% moisture curd to whey ([3]; mean of doses): 2.5
chemical retained in the curd fraction, percent of chemical in skim milk ([3]; mean of doses): approximately 16.5%

O=[N+]([O-])NC1=NCCN1Cc1ccc(Cl)nc1 [IMI, imidacloprid]
distribution into milk fat, percent of total amount added [2]: 2.5%
ratio of concentration in skim milk to initial concentration in whole milk [2]: ~1
curd/whey concentration ratio ([3]; mean of doses): 2.4
concentration ratio of 0% moisture curd to whey ([3]; mean of doses): 9.2
chemical retained in the curd fraction, percent of chemical in skim milk ([3]; mean of doses): 23.7%

CN(C)[C@@H]1C(O)=C(C(N)=O)C(=O)[C@@]2(O)C(O)=C3C(=O)c4c(O)cccc4[C@@](C)(O)[C@H]3[C@H](O)[C@@H]12 [OTET, oxytetracycline]
curd/whey concentration ratio [5]: 1.4

Clc1ccc(-c2cc(Cl)c(Cl)cc2Cl)cc1Cl [PCB-118, 2,3′,4,4′,5-pentachlorobiphenyl]
distribution into milk fat, percent of total amount added [2]: > 80%
ratio of concentration in milk fat to initial concentration in whole milk [2]: 18–20 and 19.5
concentration ratio of 0% moisture curd to whey ([3]; mean of doses): 136
chemical retained in the curd fraction, percent of chemical in skim milk ([3]; mean of doses): ~80%

CC1(C)S[C@@H]2[C@H](NC(=O)Cc3ccccc3)C(=O)N2[C@H]1C(=O)O [PENG, penicillin G]
curd/whey concentration ratio [5]: 1.2

CS(=O)(=O)c1ccc([C@@H](O)[C@@H](CO)NC(=O)C(Cl)Cl)cc1 [TAP, thiamphenicol]
curd/whey concentration ratio [5]: 1.3

O=C(Nc1ccc(Cl)cc1)Nc1ccc(Cl)c(Cl)c1 [TCC, triclocarban]
distribution into milk fat, percent of total amount added [2]: > 80% and 85%
ratio of concentration in milk fat to initial concentration in whole milk [2]: 18–20 and 17.6
concentration ratio of 0% moisture curd to whey ([3]; mean of doses): 46
chemical distributed into whey, percent of chemical in skim milk ([3]; mean of doses): 35–60%
chemical retained in the curd fraction, percent of chemical in skim milk ([3]; mean of doses): 40–60%
percent of skim milk chemical in 0% moisture curd ([3]; mean of doses): 57%

CC(=O)Nc1ccc(O)cc1 [TYL, acetaminophen]
curd/whey concentration ratio [5]: 1.5

CNP(=O)(OC)Oc1ccc(C(C)(C)C)cc1Cl (stereo not shown) [cruformate]
concentration into cream adjusted to reflect lipid mass yield [6]: ~7.6 fold
concentration into cream relative to whole milk ([1]; fed to cows): fivefold
curd/whey concentration ratio ([1]; starting milk concentration 0.07 ppm): 22
curd/whey concentration ratio ([1]; starting milk concentration 0.16 ppm): 31
log P [4]: 3.33

ClC1=C(Cl)C2(Cl)C3C4CC(C5OC45)C3C1(Cl)C2(Cl)Cl (stereo not shown) [endrin]
curd/whey concentration ratio [1]: 91
log P [4]: 4.9
log D (pH 7.4) [4]: 4.9

COP(=S)(OC)Oc1ccc(SC)c(C)c1 [fenthion]
concentration ratio of fat/whole milk [1]: ~5
percent found in the fat fractions [1]: 80–90%
log P [4]: 3.21

ClC1=C(Cl)C2(Cl)C3C(Cl)C=CC3C1(Cl)C2(Cl)Cl (stereo not shown) [heptachlor]
curd/whey concentration ratio [1]: 22
log P [4]: 5.46

Cl[C@H]1[C@H](Cl)[C@@H](Cl)[C@@H](Cl)[C@H](Cl)[C@H]1Cl [lindane, 1,2,3,4,5,6-hexachlorcyclohexane]
concentration in curd relative to whey [1]: approximately 12 times
reduction by pasteurization [1]: 65–73%
losses in Ras cheese ([1]; during 6 months in storage): 36.7%
losses during refrigeration of yogurt ([1]; over 3 days): 1.4–8%
log P [4]: 3.99

ivermectin [IVR]
milk fat/whole milk concentration ratio [7]: 18.4
log P, parenthesis value ([4]; Table S1, value cited in the earlier paper): 6.61
